Experimental data: patent US11445724B2, “Insecticidal compounds” (SYNGENTA PARTICIPATIONS AG, priority 2013, dated 2022)

Experiments:
Assay type in all cases: in vivo
[1] = test system: Diabrotica balteata (Corn root worm); assay: Diabrotica balteata (Corn root worm) larval mortality, artificial diet in 24-well MTP; details: 120 h, application rate 200 ppm (concentration in well 18 ppm), L2 larvae, larval mortality after 5 days
[2] = test system: Myzus persicae (Green peach aphid); assay: Myzus persicae (Green peach aphid) mortality, sprayed sunflower leaf discs; details: foliar, 144 h, 200 ppm spray on sunflower leaf discs, mixed ages, mortality 6 DAT
[3] = test system: Myzus persicae (Green peach aphid); assay: Myzus persicae (Green peach aphid) mortality, test compounds mixed with Sucrose solution under Parafilm; details: 120 h, 12.5 ppm in Sucrose solution, infested pea seedlings on Parafilm, mortality 5 days after infestation
[4] = test system: Plutella xylostella (Diamond back moth); assay: Plutella xylostella (Diamond back moth) larval mortality, artificial diet in 24-well MTP; details: 144 h, application rate 200 ppm (concentration in well 18 ppm), L2 larvae, larval mortality after 6 days
[5] = test system: Spodoptera littoralis (Egyptian cotton leafworm); assay: Spodoptera littoralis (Egyptian cotton leafworm) mortality, sprayed cotton leaf discs; details: foliar, 72 h, 200 ppm spray on cotton leaf discs, L1 larvae, mortality 3 DAT
[6] = test system: Thrips tabaci (Onion thrips); assay: Thrips tabaci (Onion thrips) mortality, sprayed sunflower leaf discs; details: foliar, 168 h, 200 ppm spray on sunflower leaf discs, mixed ages, mortality after 7 days

CCN(C(=O)c1ccccc1)c1cccc(C(=O)Nc2c(Cl)cc(C(F)(C(F)(F)F)C(F)(F)F)cc2OC(F)F)c1OC [Compound 155]
≥ 80%: pest or weed control at 200 ppm [1] | pest or weed control at 200 ppm [2] | pest or weed control at 12.5 ppm [3] | pest or weed control at 200 ppm [4] | pest or weed control at 200 ppm [5] | pest or weed control at 200 ppm [6]

CCN(C(=O)c1ccc(F)cc1F)c1cccc(C(=O)Nc2c(Cl)cc(C(F)(C(F)(F)F)C(F)(F)F)cc2OC(F)F)c1OC [Compound 160]
≥ 80%: pest or weed control at 200 ppm [1] | pest or weed control at 12.5 ppm [3] | pest or weed control at 200 ppm [4] | pest or weed control at 200 ppm [5] | pest or weed control at 200 ppm [6]

CCN(C(=O)c1cc(C(F)(F)F)ccc1F)c1cccc(C(=O)Nc2c(Br)cc(C(F)(C(F)(F)F)C(F)(F)F)cc2OC(F)F)c1F [Compound 110]
≥ 80%: pest or weed control at 200 ppm [1] | pest or weed control at 12.5 ppm [3] | pest or weed control at 200 ppm [4] | pest or weed control at 200 ppm [5] | pest or weed control at 200 ppm [6]

O=C(Nc1cccc(C(=O)Nc2c(Cl)cc(C(F)(C(F)(F)F)C(F)(F)F)cc2OC(F)F)c1F)c1ccccc1F [Compound 45]
≥ 80%: pest or weed control at 200 ppm [1] | pest or weed control at 200 ppm [2] | pest or weed control at 12.5 ppm [3] | pest or weed control at 200 ppm [4] | pest or weed control at 200 ppm [5] | pest or weed control at 200 ppm [6]

CCN(C(=O)c1ccc(C(F)(F)F)cc1)c1cccc(C(=O)Nc2c(Cl)cc(C(F)(C(F)(F)F)C(F)(F)F)cc2OC(F)F)c1F [Compound 117]
≥ 80%: pest or weed control at 200 ppm [1] | pest or weed control at 12.5 ppm [3] | pest or weed control at 200 ppm [4] | pest or weed control at 200 ppm [5] | pest or weed control at 200 ppm [6]

CCN(C(=O)c1cc(Cl)ccc1F)c1cccc(C(=O)Nc2c(Cl)cc(C(F)(C(F)(F)F)C(F)(F)F)cc2OC(F)F)c1F [Compound 115]
≥ 80%: pest or weed control at 200 ppm [1] | pest or weed control at 12.5 ppm [3] | pest or weed control at 200 ppm [4] | pest or weed control at 200 ppm [5] | pest or weed control at 200 ppm [6]

CCN(C(=O)c1ccc([N+](=O)[O-])cc1)c1cccc(C(=O)Nc2c(Cl)cc(C(F)(C(F)(F)F)C(F)(F)F)cc2OC(F)F)c1F [Compound 113]
≥ 80%: pest or weed control at 200 ppm [1] | pest or weed control at 12.5 ppm [3] | pest or weed control at 200 ppm [4] | pest or weed control at 200 ppm [5]

COc1c(NC(=O)c2ccc(C)cc2)cccc1C(=O)Nc1c(Br)cc(C(F)(C(F)(F)F)C(F)(F)F)cc1OC(F)F [Compound 41]
≥ 80%: pest or weed control at 200 ppm [1] | pest or weed control at 200 ppm [2] | pest or weed control at 12.5 ppm [3] | pest or weed control at 200 ppm [4] | pest or weed control at 200 ppm [5] | pest or weed control at 200 ppm [6]

CCN(C(=O)c1ccccc1C)c1cccc(C(=O)Nc2c(Br)cc(C(F)(C(F)(F)F)C(F)(F)F)cc2OC(F)F)c1F [Compound 126]
≥ 80%: pest or weed control at 200 ppm [1] | pest or weed control at 12.5 ppm [3] | pest or weed control at 200 ppm [4] | pest or weed control at 200 ppm [5] | pest or weed control at 200 ppm [6]

CCN(C(=O)c1ccccc1)c1cccc(C(=O)Nc2c(Br)cc(C(F)(C(F)(F)F)C(F)(F)F)cc2OC(F)F)c1OC [Compound 138]
≥ 80%: pest or weed control at 200 ppm [1] | pest or weed control at 200 ppm [2] | pest or weed control at 12.5 ppm [3] | pest or weed control at 200 ppm [4] | pest or weed control at 200 ppm [5] | pest or weed control at 200 ppm [6]

CCN(C(=O)c1ccccc1F)c1cccc(C(=O)Nc2c(Cl)cc(C(F)(C(F)(F)F)C(F)(F)F)cc2OC(F)F)c1F [Compound 111]
≥ 80%: pest or weed control at 200 ppm [1] | pest or weed control at 200 ppm [2] | pest or weed control at 12.5 ppm [3] | pest or weed control at 200 ppm [4] | pest or weed control at 200 ppm [5] | pest or weed control at 200 ppm [6]

CCN(C(=O)c1cc(Cl)ccc1F)c1cccc(C(=O)Nc2c(Br)cc(C(F)(C(F)(F)F)C(F)(F)F)cc2OC(F)F)c1F [Compound 104]
≥ 80%: pest or weed control at 200 ppm [1] | pest or weed control at 12.5 ppm [3] | pest or weed control at 200 ppm [4] | pest or weed control at 200 ppm [5] | pest or weed control at 200 ppm [6]

CCN(C(=O)c1ccc([N+](=O)[O-])cc1Cl)c1cccc(C(=O)Nc2c(Cl)cc(C(F)(C(F)(F)F)C(F)(F)F)cc2OC(F)F)c1F [Compound 116]
≥ 80%: pest or weed control at 200 ppm [1] | pest or weed control at 12.5 ppm [3] | pest or weed control at 200 ppm [5] | pest or weed control at 200 ppm [6]

CCN(C(=O)c1cccc(F)c1F)c1cccc(C(=O)Nc2c(Cl)cc(C(F)(C(F)(F)F)C(F)(F)F)cc2OC(F)F)c1F [Compound 123]
≥ 80%: pest or weed control at 200 ppm [1] | pest or weed control at 200 ppm [2] | pest or weed control at 12.5 ppm [3] | pest or weed control at 200 ppm [4] | pest or weed control at 200 ppm [5] | pest or weed control at 200 ppm [6]

CCN(C(=O)c1ccccc1F)c1cccc(C(=O)Nc2c(Br)cc(C(F)(C(F)(F)F)C(F)(F)F)cc2OC(F)F)c1F [Compound 125]
≥ 80%: pest or weed control at 200 ppm [1] | pest or weed control at 200 ppm [2] | pest or weed control at 12.5 ppm [3] | pest or weed control at 200 ppm [4] | pest or weed control at 200 ppm [5] | pest or weed control at 200 ppm [6]

CCN(C(=O)c1ccc(C)cc1)c1cccc(C(=O)Nc2c(Cl)cc(C(F)(C(F)(F)F)C(F)(F)F)cc2OC(F)F)c1F [Compound 114]
≥ 80%: pest or weed control at 200 ppm [1] | pest or weed control at 12.5 ppm [3] | pest or weed control at 200 ppm [4] | pest or weed control at 200 ppm [5] | pest or weed control at 200 ppm [6]

CCN(C(=O)c1cccc(F)c1F)c1cccc(C(=O)Nc2c(Cl)cc(C(F)(C(F)(F)F)C(F)(F)F)cc2OC(F)F)c1OC [Compound 159]
≥ 80%: pest or weed control at 200 ppm [1] | pest or weed control at 200 ppm [2] | pest or weed control at 12.5 ppm [3] | pest or weed control at 200 ppm [4] | pest or weed control at 200 ppm [5] | pest or weed control at 200 ppm [6]

COc1c(NC(=O)c2ccccc2F)cccc1C(=O)Nc1c(Br)cc(C(F)(C(F)(F)F)C(F)(F)F)cc1OC(F)F [Compound 33]
≥ 80%: pest or weed control at 200 ppm [1] | pest or weed control at 12.5 ppm [3] | pest or weed control at 200 ppm [4] | pest or weed control at 200 ppm [5] | pest or weed control at 200 ppm [6]
